Experimental data: the supplement of paper PMC10307832

What was measured:
Assay in all cases: relative viability (nuclei count vs DMSO), 5 days (fraction); higher = more cells survive
[1] = compound: C(C(=O)C(=O)O)Br [Bromopyruvate] + NC(=O)Nc1cc(-c2cccc(F)c2)sc1C(=O)N[C@H]1CCCNC1 [AZD7762] (partner 0.2 µM)
Summary of the method: (§1)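 Medians of duplicate plates are given as relative viability. That measure is the nuclei count in treated wells divided by the count in vehicle wells. Counts were taken on 4× images of lung cancer cell lines in 1536-well plates, 5 days after pin-tool dosing the day after seeding with one drug alone or a fixed anchor-drug dose plus five library-drug doses (not always all listed) in √10 steps.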

[2] = compound: C(C(=O)C(=O)O)Br [Bromopyruvate] + Cc1cc(Nc2cc(N3CCN(C)CC3)nc(Sc3ccc(NC(=O)C4CC4)cc3)n2)n[nH]1 [Tozasertib] (partner 0.1 µM)
Summary of the method: as §1

[3] = compound: C(C(=O)C(=O)O)Br [Bromopyruvate] + COc1cccc2cc(-c3nc([C@H]4CC[C@H](C(=O)O)CC4)n4ncnc(N)c34)[nH]c12 [OSI-027] (partner 0.5 µM)
Summary of the method: as §1

[4] = compound: CC(O)(CS(=O)(=O)c1ccc(F)cc1)C(=O)Nc1ccc(C#N)c(C(F)(F)F)c1 [Bicalutamide] + Cc1nc(NC(=O)N2CCC[C@H]2C(N)=O)sc1-c1ccnc(C(C)(C)C(F)(F)F)c1 [Alpelisib] (partner 2 µM)
Summary of the method: as §1

NCI-H2087
relative viability ([1]; first compound 1 µM): 1.19
relative viability ([1]; first compound 3.162 µM): 1.4
relative viability ([1]; first compound 10 µM): 1.36
relative viability ([1]; first compound 31.62 µM): 1.2
relative viability ([1]; first compound 100 µM): 1.32
relative viability ([2]; first compound 1 µM): 0.237
relative viability ([2]; first compound 3.162 µM): 0.284
relative viability ([2]; first compound 10 µM): 0.234
relative viability ([2]; first compound 31.62 µM): 0.269
relative viability ([2]; first compound 100 µM): 0.258
relative viability ([3]; first compound 1 µM): 0.55
relative viability ([3]; first compound 3.162 µM): 0.612
relative viability ([3]; first compound 10 µM): 0.637
relative viability ([3]; first compound 31.62 µM): 0.542
relative viability ([3]; first compound 100 µM): 0.462
relative viability ([4]; first compound 0.08 µM): 1.22
relative viability ([4]; first compound 0.253 µM): 0.843
relative viability ([4]; first compound 0.8 µM): 1.16
relative viability ([4]; first compound 2.53 µM): 1.13

NCI-H1793
relative viability ([1]; first compound 1 µM): 0.452
relative viability ([1]; first compound 3.162 µM): 0.536
relative viability ([1]; first compound 10 µM): 0.484
relative viability ([1]; first compound 31.62 µM): 0.428
relative viability ([1]; first compound 100 µM): 0.522
relative viability ([2]; first compound 1 µM): 0.371
relative viability ([2]; first compound 3.162 µM): 0.421
relative viability ([2]; first compound 10 µM): 0.36
relative viability ([2]; first compound 31.62 µM): 0.391
relative viability ([2]; first compound 100 µM): 0.204
relative viability ([3]; first compound 1 µM): 0.329
relative viability ([3]; first compound 3.162 µM): 0.285
relative viability ([3]; first compound 10 µM): 0.249
relative viability ([3]; first compound 31.62 µM): 0.282
relative viability ([3]; first compound 100 µM): 0.381
relative viability ([4]; first compound 0.08 µM): 0.763
relative viability ([4]; first compound 0.253 µM): 0.636
relative viability ([4]; first compound 0.8 µM): 0.827
relative viability ([4]; first compound 2.53 µM): 0.687

LC-2-ad
relative viability ([1]; first compound 1 µM): 0.885
relative viability ([1]; first compound 3.162 µM): 0.863
relative viability ([1]; first compound 10 µM): 0.881
relative viability ([1]; first compound 31.62 µM): 0.812
relative viability ([1]; first compound 100 µM): 0.799
relative viability ([2]; first compound 1 µM): 0.45
relative viability ([2]; first compound 3.162 µM): 0.475
relative viability ([2]; first compound 10 µM): 0.486
relative viability ([2]; first compound 31.62 µM): 0.438
relative viability ([2]; first compound 100 µM): 0.428
relative viability ([3]; first compound 1 µM): 0.839
relative viability ([3]; first compound 3.162 µM): 0.867
relative viability ([3]; first compound 10 µM): 0.9
relative viability ([3]; first compound 31.62 µM): 0.837
relative viability ([3]; first compound 100 µM): 0.633
relative viability ([4]; first compound 0.08 µM): 0.99
relative viability ([4]; first compound 0.253 µM): 0.921
relative viability ([4]; first compound 0.8 µM): 0.852
relative viability ([4]; first compound 2.53 µM): 0.894

NCI-H1355
relative viability ([1]; first compound 1 µM): 0.744
relative viability ([1]; first compound 3.162 µM): 0.882
relative viability ([1]; first compound 10 µM): 0.664
relative viability ([1]; first compound 31.62 µM): 0.737
relative viability ([1]; first compound 100 µM): 0.648
relative viability ([2]; first compound 1 µM): 0.529
relative viability ([2]; first compound 3.162 µM): 0.577
relative viability ([2]; first compound 10 µM): 0.516
relative viability ([2]; first compound 31.62 µM): 0.548
relative viability ([2]; first compound 100 µM): 0.574
relative viability ([3]; first compound 1 µM): 0.462
relative viability ([3]; first compound 3.162 µM): 0.455
relative viability ([3]; first compound 10 µM): 0.372
relative viability ([3]; first compound 31.62 µM): 0.425
relative viability ([3]; first compound 100 µM): 0.498
relative viability ([4]; first compound 0.08 µM): 0.816
relative viability ([4]; first compound 0.253 µM): 0.793
relative viability ([4]; first compound 0.8 µM): 0.924
relative viability ([4]; first compound 2.53 µM): 0.853

H3255
relative viability ([1]; first compound 1 µM): 0.907
relative viability ([1]; first compound 3.162 µM): 0.86
relative viability ([1]; first compound 10 µM): 0.964
relative viability ([1]; first compound 31.62 µM): 0.886
relative viability ([1]; first compound 100 µM): 0.836
relative viability ([2]; first compound 1 µM): 0.613
relative viability ([2]; first compound 3.162 µM): 0.771
relative viability ([2]; first compound 10 µM): 0.686
relative viability ([2]; first compound 31.62 µM): 0.702
relative viability ([2]; first compound 100 µM): 0.829
relative viability ([3]; first compound 1 µM): 0.523
relative viability ([3]; first compound 3.162 µM): 0.637
relative viability ([3]; first compound 10 µM): 0.683
relative viability ([3]; first compound 31.62 µM): 0.679
relative viability ([3]; first compound 100 µM): 0.573
relative viability ([4]; first compound 0.08 µM): 0.697
relative viability ([4]; first compound 0.253 µM): 0.618
relative viability ([4]; first compound 0.8 µM): 1.14
relative viability ([4]; first compound 2.53 µM): 0.649

NCI-H1734
relative viability ([1]; first compound 1 µM): 0.536
relative viability ([1]; first compound 3.162 µM): 0.7
relative viability ([1]; first compound 10 µM): 0.694
relative viability ([1]; first compound 31.62 µM): 0.53
relative viability ([1]; first compound 100 µM): 0.544
relative viability ([2]; first compound 1 µM): 0.243
relative viability ([2]; first compound 3.162 µM): 0.247
relative viability ([2]; first compound 10 µM): 0.307
relative viability ([2]; first compound 31.62 µM): 0.244
relative viability ([2]; first compound 100 µM): 0.216
relative viability ([3]; first compound 1 µM): 0.599
relative viability ([3]; first compound 3.162 µM): 0.611
relative viability ([3]; first compound 10 µM): 0.731
relative viability ([3]; first compound 31.62 µM): 0.562
relative viability ([3]; first compound 100 µM): 0.595
relative viability ([4]; first compound 0.08 µM): 0.676
relative viability ([4]; first compound 0.253 µM): 0.59
relative viability ([4]; first compound 0.8 µM): 0.884
relative viability ([4]; first compound 2.53 µM): 0.683

HOP-62
relative viability ([1]; first compound 1 µM): 0.498
relative viability ([1]; first compound 3.162 µM): 0.573
relative viability ([1]; first compound 10 µM): 0.473
relative viability ([1]; first compound 31.62 µM): 0.444
relative viability ([1]; first compound 100 µM): 0.665
relative viability ([2]; first compound 1 µM): 0.39
relative viability ([2]; first compound 3.162 µM): 0.386
relative viability ([2]; first compound 10 µM): 0.381
relative viability ([2]; first compound 31.62 µM): 0.339
relative viability ([2]; first compound 100 µM): 0.351
relative viability ([3]; first compound 1 µM): 0.799
relative viability ([3]; first compound 3.162 µM): 0.743
relative viability ([3]; first compound 10 µM): 1.02
relative viability ([3]; first compound 31.62 µM): 0.803
relative viability ([3]; first compound 100 µM): 0.891
relative viability ([4]; first compound 0.08 µM): 1.31
relative viability ([4]; first compound 0.253 µM): 0.959
relative viability ([4]; first compound 0.8 µM): 1.19
relative viability ([4]; first compound 2.53 µM): 1.12

LOU-NH91
relative viability ([1]; first compound 1 µM): 0.801
relative viability ([1]; first compound 3.162 µM): 0.755
relative viability ([1]; first compound 10 µM): 0.742
relative viability ([1]; first compound 31.62 µM): 0.771
relative viability ([1]; first compound 100 µM): 0.837
relative viability ([2]; first compound 1 µM): 0.729
relative viability ([2]; first compound 3.162 µM): 0.643
relative viability ([2]; first compound 10 µM): 0.654
relative viability ([2]; first compound 31.62 µM): 0.685
relative viability ([2]; first compound 100 µM): 0.672
relative viability ([3]; first compound 1 µM): 0.804
relative viability ([3]; first compound 3.162 µM): 0.716
relative viability ([3]; first compound 10 µM): 0.747
relative viability ([3]; first compound 31.62 µM): 0.694
relative viability ([3]; first compound 100 µM): 0.756
relative viability ([4]; first compound 0.08 µM): 0.698
relative viability ([4]; first compound 0.253 µM): 0.608
relative viability ([4]; first compound 0.8 µM): 0.828
relative viability ([4]; first compound 2.53 µM): 0.745

NCI-H23
relative viability ([1]; first compound 1 µM): 0.27
relative viability ([1]; first compound 3.162 µM): 0.22
relative viability ([1]; first compound 10 µM): 0.249
relative viability ([1]; first compound 31.62 µM): 0.206
relative viability ([1]; first compound 100 µM): 0.251
relative viability ([2]; first compound 1 µM): 0.347
relative viability ([2]; first compound 3.162 µM): 0.388
relative viability ([2]; first compound 10 µM): 0.361
relative viability ([2]; first compound 31.62 µM): 0.291
relative viability ([2]; first compound 100 µM): 0.105
relative viability ([3]; first compound 1 µM): 0.605
relative viability ([3]; first compound 3.162 µM): 0.695
relative viability ([3]; first compound 10 µM): 0.612
relative viability ([3]; first compound 31.62 µM): 0.71
relative viability ([3]; first compound 100 µM): 0.661
relative viability ([4]; first compound 0.08 µM): 0.692
relative viability ([4]; first compound 0.253 µM): 0.693
relative viability ([4]; first compound 0.8 µM): 0.885
relative viability ([4]; first compound 2.53 µM): 0.557
